Laboratory results reported in ChEMBL document CHEMBL4052775, “Design, synthesis and in vitro anti-mycobacterial evaluation of gatifloxacin-1H-1,2,3-triazole-isatin hybrids” (Bioorg Med Chem Lett, 2017).
Converted amounts (≈) assume the structure as drawn.

These compounds were tested on Mycobacterium tuberculosis (assay: Antimycobacterial activity against isoniazid/rifampicin/ethambutol-resistant Mycobacterium tuberculosis 09710 by two fold dilution method).
Assay type: functional
`COc1c(N2CCNC(C)C2)c(F)cc2c(=O)c(C(=O)O)cn(C3CC3)c12` (stereo not drawn) [GATIFLOXACIN] gave an MIC of 1 µg/mL (≈ 2.66 µM).
Work on `NNC(=O)c1ccncc1` [ISONIAZID] yielded an MIC greater than 128 µg/mL.
With `CO[C@H]1/C=C/O[C@@]2(C)Oc3c(C)c(O)c4c(O)c(c(/C=N/N5CCN(C)CC5)c(O)c4c3C2=O)NC(=O)/C(C)=C\C=C\[C@H](C)[C@H](O)[C@@H](C)[C@@H](O)[C@@H](C)[C@H](OC(C)=O)[C@@H]1C` [RIFAMPIN] the MIC was 32 µg/mL (≈ 38.9 µM).
